These results are taken from patent US8772300B2, “Phenyl or pyridinyl-ethynyl derivatives” (Hoffmann-La Roche Inc., priority 2011, dated 2014).

The structures appear in SMILES notation.

The target in this assay is T1, human mGlu5a receptor (Homo sapiens, UniProt P41594).
T1 construct: expressed in transfected cells
As to the kind of experiment: Intracellular Ca2+ mobilization assay (mGlu5 PAM). The format is cell-based. To be noted: for Emax: HEK293, maximal response in % of the maximal stimulatory effect obtained with saturating concentrations of L-glutamate, HEK-293 human mGlu5a cells, read-out: Eff. (%); for EC50: HEK-293 cells stably transfected with human mGlu5a receptor, L-glutamate added at EC20 (typically around 80 μM) after 10-30 min pre-incubation with test compound, read-out: EC50 (nM) mGlu5PAM. The method, then:
A monoclonal HEK-293 cell line stably transfected with a cDNA encoding for the human mGlu5a receptor was generated; for the work with mGlu5 Positive Allosteric Modulators (PAMs), a cell line with low receptor expression levels and low constitutive receptor activity was selected to allow the differentiation of agonistic versus PAM activity. Cells were cultured according to standard protocols (Freshney, 2000) in Dulbecco's Modified Eagle Medium with high glucose supplemented with 1 mM glutamine, 10% (vol/vol) heat-inactivated bovine calf serum, Penicillin/Streptomycin, 50 μg/ml hygromycin and 15 μg/ml blasticidin (all cell culture reagents and antibiotics from Invitrogen, Basel, Switzerland).
About 24 hrs before an experiment, 5×10^4 cells/well were seeded in poly-D-lysine coated, black/clear-bottomed 96-well plates. The cells were loaded with 2.5 μM Fluo-4AM in loading buffer (1×HBSS, 20 mM HEPES) for 1 hr at 37° C. and washed five times with loading buffer. The cells were transferred into a Functional Drug Screening System 7000 (Hamamatsu, Paris, France), and 11 half logarithmic serial dilutions of test compound at 37° C. were added and the cells were incubated for 10-30 min with on-line recording of fluorescence. Following this pre-incubation step, the agonist L-glutamate was added to the cells at a concentration corresponding to EC20 (typically around 80 μM) with on-line recording of fluorescence; in order to account for day-to-day variations in the responsiveness of cells, the EC20 of glutamate was determined immediately ahead of each experiment by recording of a full dose-response curve of glutamate.
Responses were measured as peak increase in fluorescence minus basal (i.e. fluorescence without addition of L-glutamate), normalized to the maximal stimulatory effect obtained with saturating concentrations of L-glutamate. Graphs were plotted with the % maximal stimulatory using XLfit, a curve fitting program that iteratively plots the data using Levenburg Marquardt algorithm. The single site competition analysis equation used was y=A+((B−A)/(1+((x/C)D))), where y is the % maximal stimulatory effect, A is the minimum y, B is the maximum y, C is the EC50, x is the log 10 of the concentration of the competing compound and D is the slope of the curve (the Hill Coefficient). From these curves the EC50 (concentration at which half maximal stimulation was achieved), the Hill coefficient as well as the maximal response in % of the maximal stimulatory effect obtained with saturating concentrations of L-glutamate were calculated.
A depression of the signal observed after addition of the EC20 concentration of L-glutamate was indicative of an inhibitory activity of the test compound.
In general terms: Calcium flux is commonly read through the fluorescence of an indicator in the cells.

T1 sequence (P41594 21-1180 isoform P41594-2 limits assumed): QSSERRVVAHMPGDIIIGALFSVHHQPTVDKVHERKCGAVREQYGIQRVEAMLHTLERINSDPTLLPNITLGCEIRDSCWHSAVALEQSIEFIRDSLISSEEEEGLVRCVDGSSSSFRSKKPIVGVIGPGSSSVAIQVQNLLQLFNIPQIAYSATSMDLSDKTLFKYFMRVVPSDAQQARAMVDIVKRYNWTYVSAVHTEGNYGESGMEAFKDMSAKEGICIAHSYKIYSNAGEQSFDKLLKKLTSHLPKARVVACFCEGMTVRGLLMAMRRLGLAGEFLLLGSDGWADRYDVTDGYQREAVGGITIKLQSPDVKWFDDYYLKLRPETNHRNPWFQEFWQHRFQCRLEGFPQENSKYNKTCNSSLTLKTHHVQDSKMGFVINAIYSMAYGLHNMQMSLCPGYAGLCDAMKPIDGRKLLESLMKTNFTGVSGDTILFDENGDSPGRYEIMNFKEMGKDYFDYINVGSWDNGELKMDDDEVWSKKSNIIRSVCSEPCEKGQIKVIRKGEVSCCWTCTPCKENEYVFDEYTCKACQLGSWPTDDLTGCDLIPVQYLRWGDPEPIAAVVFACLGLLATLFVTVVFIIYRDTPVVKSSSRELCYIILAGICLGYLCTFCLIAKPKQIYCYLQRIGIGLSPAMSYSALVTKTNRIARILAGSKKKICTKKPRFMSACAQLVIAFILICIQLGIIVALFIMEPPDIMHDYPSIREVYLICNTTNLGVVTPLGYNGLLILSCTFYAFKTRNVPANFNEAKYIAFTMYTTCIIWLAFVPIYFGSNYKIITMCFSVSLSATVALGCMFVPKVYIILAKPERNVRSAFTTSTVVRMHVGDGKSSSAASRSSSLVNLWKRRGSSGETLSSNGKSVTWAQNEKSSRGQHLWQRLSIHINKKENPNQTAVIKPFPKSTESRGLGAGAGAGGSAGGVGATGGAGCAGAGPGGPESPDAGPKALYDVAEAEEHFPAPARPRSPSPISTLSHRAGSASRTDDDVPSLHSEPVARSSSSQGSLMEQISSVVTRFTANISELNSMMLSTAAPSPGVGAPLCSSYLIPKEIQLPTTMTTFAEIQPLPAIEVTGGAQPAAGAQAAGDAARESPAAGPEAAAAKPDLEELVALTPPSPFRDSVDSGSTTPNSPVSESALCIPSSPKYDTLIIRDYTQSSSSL

In general, EC50 refers to the midpoint of the concentration-response curve. For `CC1(O)CCN(C(=O)c2ccc(C#Cc3cccc(F)c3)cn2)CC1` [Example 37, [5-(3-Fluoro-phenylethynyl)-pyridin-2-yl]-(4-hydroxy-4-methyl-piperidin-1-yl)-methanone], the Emax is 38% and the EC50 worked out at 79 nM.
Consider `CN(C(=O)c1ncc(C#Cc2cccc(F)c2)cc1F)C1(C)CC1` [Example 42, 3-Fluoro-5-(3-fluoro-phenylethynyl)-pyridine-2-carboxylic Acid methyl-(1-methyl-cyclopropyl)-amide], for which the Emax was 35% and the EC50 was 33 nM.
With `CN(C(=O)c1ncc(C#Cc2ccccc2)cc1Cl)C(C)(C)C` [Example 43, 3-Chloro-5-phenylethynyl-pyridine-2-carboxylic Acid tert-butyl-methyl-amide], the Emax was found to be 69% and the EC50 was found to be 36 nM.
The like results for `CN(C(=O)c1ncc(C#Cc2cccc(F)c2)cn1)C1(C(F)(F)F)CC1` [Example 44, 5-(3-Fluoro-phenylethynyl)-pyrimidine-2-carboxylic Acid methyl-(1-trifluoromethyl-cyclopropyl)-amide] were, in that order, 68% and 42 nM.
The like results for `O=C(c1ncc(C#Cc2ccccc2)cn1)N1CC(F)(F)C1` [Example 45, (3,3-Difluoro-azetidin-1-yl)-(5-phenylethynyl-pyrimidin-2-yl)-methanone] were, in that order, 51% and 62 nM.
For `CC1(C)CCCN(C(=O)c2ncc(C#Cc3ccccc3)cn2)C1` [Example 46, (3,3-Dimethyl-piperidin-1-yl)-(5-phenylethynyl-pyrimidin-2-yl)-methanone], the Emax was 59% and the EC50 is 50 nM.
The corresponding values for `CN(C(=O)c1ncc(C#Cc2ccccc2)cc1F)C1(C)COC1` [Example 50, 3-Fluoro-5-phenylethynyl-pyridine-2-carboxylic Acid methyl-(3-methyl-oxetan-3-yl)-amide] are 67% and 40 nM.
On to `CN(C(=O)c1ncc(C#Cc2ccccc2)cc1C#N)C(C)(C)C` [Example 52, 3-Cyano-5-phenylethynyl-pyridine-2-carboxylic Acid tert-butyl-methyl-amide], for which the Emax was 96% and the EC50 amounted to 34 nM.
The like results for `CN(C(=O)c1ccc(C#Cc2cncc(Cl)c2)cn1)C1(C(F)(F)F)CC1` [Example 53, 5-(5-Chloro-pyridin-3-ylethynyl)-pyridine-2-carboxylic Acid methyl-(1-trifluoromethyl-cyclopropyl)-amide] were, in that order, 57% and 44 nM.
In the case of `CC(C)(NC(=O)c1ccc(C#Cc2ccnc(Cl)c2)cn1)C(F)(F)F` [Example 54, 5-(2-Chloro-pyridin-4-ylethynyl)-pyridine-2-carboxylic Acid (2,2,2-trifluoro-1,1-dimethyl-ethyl)-amide], the Emax was 80% and the EC50 came to 37 nM.
The like results for `CN(C(=O)c1ccc(C#Cc2cncc(Cl)c2)cn1)C(C)(C)C(F)(F)F` [Example 55, 5-(5-Chloro-pyridin-3-ylethynyl)-pyridine-2-carboxylic Acid methyl-(2,2,2-trifluoro-1,1-dimethyl-ethyl)-amide] were, in that order, 63% and 37 nM.
The like results for `CN(C(=O)c1ccc(C#Cc2cccc(Cl)c2)cn1)C(C)(C)C(F)(F)F` [Example 56, 5-(3-Chloro-phenylethynyl)-pyridine-2-carboxylic Acid methyl-(2,2,2-trifluoro-1,1-dimethyl-ethyl)-amide] were, in that order, 29% and 22 nM.
For `CC(C)(NC(=O)c1ncc(C#Cc2ccnc(Cl)c2)cn1)C(F)(F)F` [Example 58, 5-(2-Chloro-pyridin-4-ylethynyl)-pyrimidine-2-carboxylic Acid (2,2,2-trifluoro-1,1-dimethyl-ethyl)-amide], the Emax is 30% and the EC50 amounted to 57 nM.
